The values that follow come from patent US4639468A, “Derivatives of glycinamide, their preparation and their use” (priority 1979, dated 1987).

Read-outs that look alike come from different tables or passages of the source.

One series has as its system mouse. Briefly: passive prevention (memory) in mouse. The format is in vivo. The conditions noted are these: 50 mgr/kg intraperitoneally. An excerpt: This product and very likely other compounds of the invention thus improve mnesic retention.
The subject of series [1] is convulsions induced by bicuculline. Briefly: in vivo. The settings on record: for bicuculline (score: sum of animals protected by dosages of 10 and 100 mgr/kg): oral, 5 mice each, 3 hours before bicuculline 0.6 mgr/kg i.v., tonic convulsions; for ED50: Mus musculus; for DL50/DE50 (therapeutical index): Table III. The protocol: The anticonvulsive effect was examined for tonic convulsions induced by bicuculline. The compounds of the invention were administrated orally at dosages of 10 and 100 mgr/kg, each to 5 mice, 3 hours before intravenous injection of bicuculline at the dosage of 0.6 mgr/kg. The number of mice protected against tonic convulsions and the number of dead mice were noted.
Amongst the substances according to the invention, 2-n-pentylaminoacetamideand its hydrochloride were more particularly studied. […] The hydrochloride was also administered intravenously. […] Table III also gives the therapeutical index (LD50/ED50).

The next series relates to platelet agglutination. The series is described as follows: inhibition of platelet agglutination in human plasma (turbidimetric method of Born and Cross, Trombofax). Type of series: cell-based. The conditions noted are these: human plasma rich in platelets, preincubated 3 minutes before Trombofax. On the procedure: The measure of the inhibition of platelet agglutination is made according to the turbidimetric method of G. V. R. Born and M. J. Cross (J. Physiol. 168, 178, […]). The plasma rich in platelets is preincubated for 3 minutes before introduction of the inductor agent, Trombofax. The inhibion of the maximum amplitude of agglutination is measured by means of Upchurch agglutometer. In this test, compounds 1, 11, 14 and 18 have shown as being active.

The nature of another series: in vivo. The conditions noted are these: mouse, in vivo, po, read-out: DL50 (the source's name).
In series [2] the test system is convulsions due to leptazol. The series is described as follows: convulsions due to leptazol in mouse. The format is in vivo.
For series [3], the system named is central serotoninergic system. Briefly: potentiation of the effects of 1-trypthophan in mouse. The format is in vivo.
Series [4] has as its system convulsions induced by strychnine. Briefly: convulsions induced by strychnine. The conditions noted are these: in vivo.
Another series deals with mice. The series is described as follows: in vivo. The settings on record: oral, mice; Table II.
Series [5] deals with decarboxylase glutamate (GAD). The series is described as follows: activity of decarboxylase glutamate (GAD) in homogenizates of rat brain. The format is biochemical. The settings on record: 10^-4 M. The protocol:
The substances of the invention have the property of inhibiting convulsions induced by bicculline in mouse. […] As a matter of fact, bucuculline is a specific antoganist of GABA. Besides, the effect of the products on the activity of the GABA synthesis enzyme, decarboxylase glutamate (GAD), was studied. The activity of the GAD was determined in homogenizates of rat brain according to the method described by L. Parker (Methods in Enzymology, Ed. S. Fleischer, 1974, Vol. XXXII, part V., p. 779). […] In general, the products of the invention […] the activity of the […] (GABA-T), enzyme of GABA catabolism, which results in an increase of the GABA levels at the level of GABA-ergic neurons.

A further series relates to GABA-T. Briefly: GABA-T activity after oral administration in rat. The format is in vivo. The conditions noted are these: 200 mgr/kg per os.
Series [6] concerns convulsions due to picrotoxine. The series is described as follows: convulsions due to picrotoxine. The settings on record: in vivo. The text has this:
(3) 2-n-pentylaminoacetamide hydrochloride has no effect on the convulsions due to picrotoxine.

The subject of series [7] is accumulation of lactate in the brain. The series is described as follows: cerebral anoxia caused by decapitation of rat: lactate in the brain. Type of series: in vivo. The conditions noted are these: first seconds of anoxia caused by decapitation. The text has this:
This activity very likely explains itself by an effect on the cerebral energetic metabolism during anoxia. This effect on the cerebral energetic metabolism has been confirmed for 2-n-pentylaminoacetamide hydrochloride in a series of experiments on cerebral anoxia caused by decapitation of rat.

Series [8] relates to GABA rate of the black substance. The series is described as follows: GABA rate of the black substance after oral administration in rat. The settings on record: 200 mgr/kg per os, 4 hours after treatment. Type of series: in vivo.
Another series deals with GAD. Briefly: GAD activity after oral administration in rat. Type of series: in vivo. The settings on record: 200 mgr/kg per os.

For the molecule `CCCCCCCCNCC(N)=O` [Compound 1, 2-n-octylaminoacetamide], the “behaviour extinction in passive prevention” value with mouse is “delayed the behaviour extinction”. Moreover, the “bicuculline (score: sum of animals protected by dosages of 10 and 100 mgr/kg)” value in series [1] turned out to be 4. In addition, the “inhibition of platelet agglutination” value in the series with platelet agglutination is listed as “active”. The LD50 in the series “in vivo” (mice, Table II) turned out to be 2220 mg/kg.
As for `CCCCCNCC(N)=O` [Compound 3, 2-n-pentylaminoacetamide], the “inhibition of convulsions due to leptazol” value in series [2] was “only slightly inhibits”. In addition, the ED50 in [1] (iv, 3 h, read-out: DE50) is 11.2 mg/kg; in series [1] (po) it was 11.2 mg/kg. The “antagonist action against convulsions due to bicuculline on increase of the bicuculline doses” value in series [1] (increased bicuculline doses) is “may be overcome by an increase of the bicuculline doses”. In series [1] (mouse, in vivo), the competition with bicuculline entry is recorded as “competes with bicuculline”. Further, the “DL50/DE50 (therapeutical index)” value in series [1] (mouse) is 172. In addition, the “bicuculline (score: sum of animals protected by dosages of 10 and 100 mgr/kg)” value in series [1] is 7. In addition, the “effect on the effects of 1-trypthophan” value in series [3] is given as “potentiates the effects of 1-trypthophan”. In addition, the “activity against convulsions induced by strychnine” value in series [4] was “inactive”. The DL50 in the series on mice worked out at 1925 mg/kg. In addition, in series [5], the “effect on the activity of GAD” value was “particularly remarkable”.
For the molecule `CCCCCNCC(N)=O.Cl` [Compound 33, 2-n-pentylaminoacetamide hydrochloride], the “effect on GABA-T” value in the series with GABA-T is “without modifying”. Moreover, the ED50 in series [1] (iv) is 2.19 mg/kg; in series [1] (iv, 3 h, read-out: DE50), 5.74 mg/kg; in series [1] (po) it was 5.74 mg/kg. The “absorption from the intestinal tractus” value in series [1] (mouse, in vivo) was “excellent absorption from the intestinal tractus”. Further, the “DL50/DE50 (therapeutical index)” value in [1] (mouse) is on record as 390. In addition, the “bicuculline (score: sum of animals protected by dosages of 10 and 100 mgr/kg)” value in series [1] is listed as 6. Moreover, the “effect on the convulsions due to picrotoxine” value in series [6] is recorded as “no effect”. In addition, the LD50 was found to be 2880 mg/kg in “in vivo” (mice, Table II) and 2240 mg/kg in the series “in vivo” (Table III). In [7], the “accumulation of lactate in the brain” value is given as “prevents accumulation of lactate in the brain”. In addition, the “effect on the activity of GAD” value in series [5] is recorded as “particularly remarkable”. Further, the “increase of GABA rate of the black substance” value in series [8] came to 38%. Besides, in the series with GAD, the “potentiation of the GAD activity” value is recorded as 26%.
